“Also recorded” adds a separate entry of the source.
Legend:
[1] = Solubility / precipitation of IV formulations on pH adjustment; format: physicochemical; settings: pH lowered with hydrochloric acid solution
Experimental: Summary of Experiments. […] The pH of the compounding solution would later be adjusted by sodium hydroxide solution to the target pH. […] Only samples containing 20% SBECD (samples S-1.1 and S-2.1) were fully soluble at the desired pH.
Sample Preparation. To a 20 mL scintillation vial was added 60 mg of the racemate of the free base of the compound of Formula I and a magnetic stir bar. 3 mL of formulation solution (either 0%, 10% or 20% w/w SBECD in H2O) was added. The pH of the mixture was adjusted to approximately pH 3 by the addition of 1N HCl. Upon full dissolution (with magnetic stirring, sonication if necessary), the IV formulation was adjusted to the final pH by the addition of 1N NaOH solution. The IV formulation was filtered through a syringe filter, separated into 3 samples of approximately equal volume, and the samples were transferred to a stability chamber at 2-5° C., 25° C., or 40° C. At the specified time point the sample was removed from the stability chamber, an aliquot of the IV formulation was removed and diluted to 0.5 mg/mL with H2O for HPLC analysis.
As noted above, significant precipitation of compound D1 occurred upon adjusting the IV formulation to the final pH level of 5 or 6 for IV formulations containing <20% SBECD. […] IV formulations were filtered prior to conducting the stability studies.

[2] = system: synovial sarcoma cell lines (SYO1, Yamato, HS-SY-II, and ASKA); assay: Growth of synovial sarcoma cell lines, IncuCyte confluency / crystal violet / colony imaging (Example 2); format: cell-based; settings: FIGS. 4, 5, 6
Experimental: (§1) Cells were treated with DMSO or the BRD9 degrader, Compound 1, at indicated concentrations, and proliferation was monitored from day 7 to day 14 by measuring confluency overtime using an IncuCyte live cell analysis system (FIG. 4). Growth medium and compounds were refreshed every 3-4 days.
(§2) Cells were seeded into 12-well plates and treated with DMSO, 1 μM BRD9 inhibitor, Compound 2 (also known as BI-7273, see Martin et al, J Med Chem. 59(10):4462-4475 (2016); see structure of compound 2 below), or 1 μM BRD9 degrader, Compound 1.
(§3) The number of cells was optimized for each cell line. Growth medium and compounds were refreshed every 3-5 days. SYO1, Yamato, A549, 293T and HS-SY-II cells were fixed and stained at day 11. ASKA cells were fixed and stained at day 23. Staining was done by incubation with crystal violet solution (0.5 g Crystal Violet, 27 ml 37% Formaldehyde, 100 mL 10×PBS, 10 mL Methanol, 863 dH20 to 1 L) for 30 min followed by 3× washes with water and drying the plates for at least 24 h at room temperature. Subsequently plates were scanned on an Odyssey CLx Imaging system (FIG. 5).
(§4) Cells were seeded into 96-well ultra-low cluster plate (Costar, #7007) in 200 μL complete media and treated at day 2 with DMSO, Staurosporin, or BRD9 degrader, Compound 1, at indicated doses (FIG. 2C). Media and compounds were changed every 5 d and cell colonies were imaged at day 14.

[3] = system: non-synovial control cancer cell lines (293T, A549, G401); assay: Growth of non-synovial control cancer cell lines (Example 2); format: cell-based
Experimental: as §1, §2, §3, §4

[4] = system: synovial sarcoma cell lines (SYO1, HS-SY-II, and ASKA); assay: Growth of synovial sarcoma cell lines, crystal violet day 14 (Example 3); format: cell-based; settings: daily treatment
Experimental: (§5) Procedure: Cells were seeded into 6-well or 12-well plates and were treated daily with a BRD9 degrader (Compound 1), a bromo-domain BRD9 binder (Compound 2), E3 ligase binder (lenalidomide), DMSO, or staurosporin (positive control for cell killing), at indicated concentrations. The number of cells was optimized for each cell line. Growth media was refreshed every 5 days. By day 14, medium was removed, cells were washed with PBS, and stained using 500 μL of 0.005% (w/v) crystal violet solution in 25% (v/v) methanol for at least 1 hour at room temperature. Subsequently plates were scanned on an Odyssey CLx Imaging system.

[5] = system: non-synovial control cancer cell lines (RD, HCT116, and Calu6); assay: Growth of non-synovial control cancer cell lines, crystal violet day 14 (Example 3); format: cell-based; settings: daily treatment
Experimental: as §5

SYO1 cells [6] = assay: Cell cycle analysis, Click-iT Plus EdU Flow Cytometry Assay; format: cell-based, human; settings: SYO1, 200 nM or 1 μM, 8 or 13 days, compared to DMSO and lenalidomide
Experimental: (§6) Procedure: SYO1 cells were treated for 8 or 13 days with DMSO, a BRD9 degrader (Compound 1) at 200 nM or 1 μM, or an E3 ligase binder (lenalidomide) at 200 nM. Compounds were refreshed every 5 days. Cell cycle analysis was performed using the Click-iT™ Plus EdU Flow Cytometry Assay (Invitrogen). The apoptosis assay was performed using the Annexin V-FITC Apoptosis Detection Kit (Sigma A9210). Assays were performed according to the manufacturer's protocol.

SYO1 cells [7] = assay: Apoptosis assay, Annexin V-FITC Apoptosis Detection Kit; format: cell-based, human; settings: SYO1, 8 days, compared to DMSO controls
Experimental: as §6

[8] = biological target: T1, Nanoluciferase-BRD9 fusion protein (Homo sapiens, UniProt Q9H8M2); assay: SYO1 BRD9 NanoLuc degradation assay; format: cell-based; settings: 6 hours incubation; read-out: SYO1 BRD9-NanoLuc degradation IC50
T1 construct: fused on or other part: 3xFLAG tag and Nanoluciferase (NLuc) as reporter handle, fused to BRD9. b953 puts them at the N-terminus
T1 sequence (Q9H8M2 134-240 limits assumed): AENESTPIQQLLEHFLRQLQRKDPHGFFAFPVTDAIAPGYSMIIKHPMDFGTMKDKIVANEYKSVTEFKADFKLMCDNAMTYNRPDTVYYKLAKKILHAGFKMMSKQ
Experimental: Procedure: A stable SYO-1 cell line expressing 3×FLAG-NLuc-BRD9 was generated. On day 0 cells were seeded in 30 μL media into each well of 384-well cell culture plates. The seeding density was 8000 cells/well. On day 1, cells were treated with 30 nL DMSO or 30 nL of 3-fold serially DMSO-diluted compounds (10 points in duplicates with 1 μM as final top dose). Subsequently plates were incubated for 6 hours in a standard tissue culture incubator and equilibrated at room temperature for 15 minutes. Nanoluciferase activity was measured by adding 15 μL of freshly prepared Nano-Glo Luciferase Assay Reagent (Promega N1130), shaking the plates for 10 minutes and reading the bioluminescence using an EnVision reader.
Results: The Inhibition % was calculated using the following formula: % Inhibition=100×(LumHC−LumSample)/(LumHC−LumLC). DMSO treated cells are employed as High Control (HC) and 1 μM of a known BRD9 degrader standard treated cells are employed as Low Control (LC).

COc1cc(-c2cn(C)c(=O)c3cnc(N4CCC4)cc23)cc(OC)c1CN1CCC(CN2CCC3(CC2)CN(c2ccc4c(c2)C(=O)N(C2CCC(=O)NC2=O)C4)C3)CC1 (racemic) [racemate of the free base of the compound of Formula I]
dissolution at pH 3 [1]: complete dissolution

COc1cc(-c2cn(C)c(=O)c3cnccc23)cc(OC)c1CN(C)CC(=O)NCCOCCOCCNc1cccc2c1C(=O)N(C1CCC(=O)NC1=O)C2=O (centres unmarked) [Compound 1]
growth of synovial sarcoma cell lines [2]: inhibition of the growth of the cells | growth of non-synovial control cancer cell lines [3]: does not result in inhibition of the growth | growth of synovial sarcoma cell lines [4]: inhibition of the growth of the cells; also recorded: most significant growth inhibition in all synovial cell lines | growth of non-synovial control cancer cell lines [5]: did not result in inhibition of the growth | cells in the S-phase of the cell cycle (SYO1 cells [6]): reduced numbers of cells in the S-phase of the cell cycle | early- and late-apoptotic cells (SYO1 cells [7]): increased numbers of early- and late-apoptotic cells

[2H]C([2H])([2H])Oc1cc(-c2cn(C)c(=O)c3cnc(N4CCC4)cc23)cc(OC([2H])([2H])[2H])c1CN1CCC(CN2CCC3(CC2)CN(c2ccc4c(c2)C(=O)N(C2CCC(=O)NC2=O)C4)C3)CC1 (centres unmarked) [Compound D2]
DC50 [8]: 0.18 nM
